Data set [1] addresses T1, Hypoxia-inducible factor 1-alpha (Homo sapiens, UniProt Q16665). Kind of data set: Inhibition of HIF1alpha in human U251 cells under hypoxic condition by luciferase reporter gene assay. In kind it is cell-based, U-251.
Target sequence in this assay (Q16665 whole entry): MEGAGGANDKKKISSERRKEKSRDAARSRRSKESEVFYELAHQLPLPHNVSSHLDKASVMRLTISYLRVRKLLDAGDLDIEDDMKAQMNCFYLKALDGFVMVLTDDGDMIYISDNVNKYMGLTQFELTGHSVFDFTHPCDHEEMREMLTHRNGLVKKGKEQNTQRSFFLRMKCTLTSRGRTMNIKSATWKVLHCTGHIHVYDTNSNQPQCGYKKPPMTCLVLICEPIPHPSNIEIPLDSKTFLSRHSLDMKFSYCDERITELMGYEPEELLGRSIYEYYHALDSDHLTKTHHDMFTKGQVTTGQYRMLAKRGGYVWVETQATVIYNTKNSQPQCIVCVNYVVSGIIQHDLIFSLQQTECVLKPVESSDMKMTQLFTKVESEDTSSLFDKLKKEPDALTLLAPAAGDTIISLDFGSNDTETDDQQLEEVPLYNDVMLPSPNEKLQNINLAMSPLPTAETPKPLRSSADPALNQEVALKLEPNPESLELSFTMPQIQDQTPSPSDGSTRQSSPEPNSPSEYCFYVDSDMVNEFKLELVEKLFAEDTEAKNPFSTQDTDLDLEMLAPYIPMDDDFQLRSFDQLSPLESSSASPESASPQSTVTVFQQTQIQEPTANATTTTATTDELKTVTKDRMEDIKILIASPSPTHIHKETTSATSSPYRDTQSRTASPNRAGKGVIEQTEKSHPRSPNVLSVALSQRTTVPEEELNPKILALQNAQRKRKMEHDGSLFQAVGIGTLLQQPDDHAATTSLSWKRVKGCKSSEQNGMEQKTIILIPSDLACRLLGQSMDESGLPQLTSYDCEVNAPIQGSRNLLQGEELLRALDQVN
Data set [2] addresses T1, Hypoxia-inducible factor 1-alpha. Kind of data set: Inhibition of HIF1alpha in human U251 cells under normoxic condition by luciferase reporter gene assay. In kind it is cell-based, U-251.
Target sequence in this assay (Q16665 whole entry): as above
Another data set concerns DU-145. Kind of data set: Antiproliferative activity against human DU145 cells by [3H]thymidine incorporation assay. It is filed as functional, cell-based. (Uptake of a labelled nucleoside into DNA is a usual measure of proliferation.)
In data set [3] the test system is PC-3. Nature of the data set: Antiproliferative activity against human PC3 cells by [3H]thymidine incorporation assay. In kind it is functional, cell-based.
The test system of data set [4] is U-251. Nature of the data set: Antiproliferative activity against human U251 cells by [3H]thymidine incorporation assay. In kind it is functional, cell-based.
The test system of the next data set is HUVEC. Kind of data set: Antiangiogenic activity in HUVEC assessed as inhibition of tube formation. It is filed as functional, cell-based. Particulars: Homo sapiens.
Data set [5] concerns PC-3. Kind of data set: Inhibition of HIF1alpha expression in human PC3 cells by Western blot analysis. In kind it is functional, cell-based. (In general: Immunoblotting shows a protein as a band on a membrane.)
Data set [6] can be described thus: Antiproliferative activity against human WI38 cells by [3H]thymidine incorporation assay. It is filed as cell-based. Particulars: WI-38.
In a further data set the test system is Mus musculus. Nature of the data set: Toxicity in SCID mouse xenografted with human PC3 cells assessed as weight loss at 50 mg/kg, po BID for 19 days measured on day 25. To be noted: in vivo, 456 h. It is filed as organism-based, PC-3. Also on record: dose 50 mg/kg, route oral.
For a further data set, the system named is OVCAR-3. Nature of the data set: Antiproliferative activity against human OVCAR-3 cells by [3H]thymidine incorporation assay. In kind it is functional, cell-based. Particulars: OVCAR-3, 3 h.
The test system of data set [7] is U-251. Kind of data set: Inhibition of HIF1alpha expression in human U251 cells by Western blot analysis. It is filed as functional, cell-based.
Data set [8] concerns the target T1, Hypoxia-inducible factor 1-alpha. Kind of data set: Inhibition of HIF1-alpha-mediated VEGF mRNA expression in human PC3 cells under hypoxic condition by RT-PCR analysis. In kind it is cell-based. Particulars: PC-3.
Target sequence in this assay (Q16665 whole entry, looked up): as the sequence (Q16665 whole entry) above
For data set [9], the system named is PC-3. Kind of data set: Antitumor activity against human PC3 cells xenografted in SCID mouse assessed as tumor growth inhibition at 50 mg/kg, po BID for 19 days measured on day 20. Set-up: dose 50 mg/kg. It is filed as functional, organism-based. A general note: In xenograft studies the graft and the host belong to different species.
For a further data set, the system named is PANC-1. Nature of the data set: Antiproliferative activity against human PANC1 cells by [3H]thymidine incorporation assay. It is filed as functional, cell-based.
In a further data set the test system is MRC5. Kind of data set: Antiproliferative activity against human MRC5 cells by [3H]thymidine incorporation assay. It is filed as cell-based.
The next data set has as its system HCT-116. Nature of the data set: Antiproliferative activity against human HCT116 cells by [3H]thymidine incorporation assay. In kind it is functional, cell-based.

Consider 27 compounds from ChEMBL document CHEMBL1268970, “Development of novel inhibitors targeting HIF-1α towards anticancer drug discovery” (Bioorg Med Chem Lett, 2010).

Calls of active or inactive are those of the source. The calls are words filed in the database; no cut-off is given here.

For `Cc1nc(-c2ccc(NC(=O)CCl)cn2)nc(O)c1C`, in data set [1], the IC50 (as a rule, the midpoint of a concentration-inhibition curve) is more than 30 µM.
Consider `O=C(CCl)Nc1ccc(-c2nc(Cl)cc(C(F)(F)F)n2)nc1`, for which the IC50 in [1] turned out to be 1.4 µM; in data set [2], 10 µM.
With `Nc1ccc(-c2nc(O)cc(C(F)(F)F)n2)nc1`, in data set [1], the IC50 was more than 30 µM.
Regarding `Cc1nc(-c2ccc(NC(=O)CCl)cn2)[nH]c(=O)c1F`, the IC50 in data set [1] worked out at 2 µM; in data set [2], 6 µM.
Turning to `CCc1c(C)nc(-c2ccc(NC(=O)CCl)cn2)nc1O`, the IC50 turned out to be 1.5 µM in [1] and 5.5 µM in data set [2].
The corresponding values for `COc1cc(C(F)(F)F)nc(-c2ccc(NC(=O)CCl)cn2)n1` are 3.5 µM and 15 µM.
In the case of `C=CCOc1cc(C(F)(F)F)nc(-c2ccc(N)cn2)n1`, the IC50 in data set [1] was more than 30 µM.
Compound `CCOc1cc(C(F)(F)F)nc(-c2ccc(N)cn2)n1` had an IC50 in [1] of more than 30 µM.
In the case of `Cc1nc(-c2ccc(NC(=O)CCl)cn2)nc(O)c1Cc1ccccc1`, the IC50 in data set [1] turned out to be 4 µM; in [2], 10 µM.
In turn, `Cc1nc(-c2ccc(N)cn2)nc(O)c1Cl` registered an IC50 in data set [1] of more than 30 µM.
For the compound `C=CCOc1cc(C(F)(F)F)nc(-c2ccc(NC(=O)CCl)cn2)n1`, the IC50 in data set [1] is 2 µM; in data set [2], 30 µM.
On to `CC[C@@]1(O)C(=O)OCc2c1cc1n(c2=O)Cc2cc3c(CN(C)C)c(O)ccc3nc2-1` [TOPOTECAN], for which the IC50 in the data set with DU-145 was determined as 1.2 µM; in the data set with PC-3 [3], 1 µM; in the data set on U-251 [4], 0.5 µM.
Consider `C=CCOc1nc(-c2ccc(NC(=O)CCl)cn2)nc(C)c1Cl`, for which the figures for the IC50 in data set [1] and in data set [2] were 1.5 µM and 8 µM, respectively.
With `Cc1nc(-c2ccc(N)cn2)nc(O)c1C`, in data set [1], the IC50 is more than 30 µM.
Same read-out and setting: in the case of `CCOc1cc(C(F)(F)F)nc(-c2ccc(NC(=O)CCl)cn2)n1` it was 8 µM; in that of `O=C(Nc1ccc(-c2nc(O)cc(C(F)(F)F)n2)nc1)C(F)(F)Cl`, more than 30 µM.
For `O=C(CCl)Nc1ccc(-c2nc(O)cc(C(F)(F)F)n2)nc1`, the inhibition entry (with HUVEC; with PC-3 [5]; in the data set on U-251 [7]; in [8]) was “Dose-dependent effect” each time. Also, the IC50 with DU-145 worked out at 1.2 µM; in data set [6], 6.5 µM; with OVCAR-3 it was 3.5 µM; in [1], 0.8 µM; in data set [2], 8 µM; in the data set with PANC-1 it was 2 µM. Further, the IC50 in the data set on PC-3 [3] was 1 µM; with MRC5, more than 10 µM; with U-251 [4] it was 1.5 µM; in the data set with HCT-116, 0.8 µM. In addition, in the data set on Mus musculus, the Activity result is “Non-toxic”. Moreover, in the data set with PC-3 [9], the “growth inhibition (GI)” value was “Active”.
`Cc1nc(-c2ccc(N)cn2)nc(O)c1Cc1ccccc1` came in with an IC50 in data set [1] of more than 30 µM.
In the case of `CCc1c(C)nc(-c2ccc(N)cn2)nc1O`, the IC50 in data set [1] was more than 30 µM.
Regarding `O=C(CCl)Nc1ccc(-c2nc(O)cc(CCl)n2)nc1`, the IC50 in [1] turned out to be 1.5 µM; in data set [2] it was 5.5 µM.
With `Cc1nc(-c2ccc(NC(=O)CCl)cn2)[nH]c(=O)c1Cl`, in [1], the IC50 worked out at 5.5 µM.
Turning to `Nc1ccc(-c2nc(O)cc(CCl)n2)nc1`, the IC50 in data set [1] was 6 µM; in data set [2] it was 22 µM.
On to `C=CCOc1nc(-c2ccc(NC(=O)CCl)cn2)nc(C)c1CC`, for which the IC50 was 1.8 µM in [1] and 22 µM in [2].
`Cc1nc(-c2ccc(N)cn2)nc(O)c1F` had an IC50 in data set [1] of more than 30 µM.
Still for that read-out and setting: in the case of `C=CCOc1nc(-c2ccc(N)cn2)nc(C)c1CC` it was more than 30 µM; in that of `COc1cc(C(F)(F)F)nc(-c2ccc(N)cn2)n1`, more than 30 µM; in that of `C=CCOc1nc(-c2ccc(N)cn2)nc(C)c1Cl`, more than 30 µM.
